Earlier results as cited in PMC11215356 (Haematologica, 2024).

Key:
[1] = system: FL; details: FL patients
[2] = system: CLL/SLL; details: CLL/SLL patients, range over previous Syk inhibitor studies
[3] = system: patients treated with fostamatinib

diarrhea as a DLT event [3]	diarrhea as one of the most common TRAE [3]	SMILES	mPFS [1]	ORR [2]	mPFS [2]
–	–	c1cn2cc(-c3ccc4cn[nH]c4c3)nc(Nc3ccc(N4CCOCC4)cc3)c2n1 [entospletinib]	4.6 months	33-61%	5.6-13.8 months
–	–	CCS(=O)(=O)N1CCN(c2ccc(Nc3ncc(C(N)=O)c(NC4CC4)n3)cc2)CC1 [cerdulatinib]	–	33-61%	5.6-13.8 months
21%	41%	COc1cc(Nc2ncc(F)c(Nc3ccc4c(n3)N(COP(=O)(O)O)C(=O)C(C)(C)O4)n2)cc(OC)c1OC [fostamatinib]	5.7 months	33-61%	5.6-13.8 months
